# Test system: human dermal fibroblast (HDF)
# Assay: Comparative gene expression analysis (mRNA sequencing)
# Assay type: cell-based
# Conditions: 5 μM, 24 h
# Protocol: Comparative gene expression analysis in human dermal fibroblast (HDF) was performed to gain insight into role of compound 1 in the photoprotection against UV-induced damage. Three independent HDF lines form three patients were treated with 5 μM 1 for 24 h or mock-treated with DMSO. Alternatively, the above three biological samples (without 1) were irradiated with UV light (5 J/cm2). 1.5-3.0×10^6 cells from each treatment or control was used for isolation of total RNA using trizol. cDNA sequencing libraries were prepared with the Illumina TruSeq Stranded mRNA LT Sample Prep Kit (Illumina, San Diego, Calif.) according to standard Illumina's protocols and sequenced on HiSeq 2500 apparatus (50 bp single-end reads).
# To reveal the molecular mechanism of the action of 1, we compared data from mock (DMSO)-treated HDF or UV-treated HDF with those obtained after 24 h treatment with 1. For data analysis, we performed ab initio method where sequencing reads were mapped to the reference genome. […] These included calcium-activated potassium channel KCNN4, calcium sensor DYSF or calcium-dependent phospholipid-binding protein CPNE7. […] Thus, 1 seems to protect cells against oxidative damage caused primarily by UV-light or other stress conditions.
# [1] = 1-treated vs UV-treated group, P<0.05
compound,measurement,setting,value
"c1nc(NCC2CCCO2)c2ncn(C3CCCO3)c2n1 (centres unmarked) [Compound 1, 6-(tetrahydrofuran-2-ylmethylamino)-9-(tetrahydrofuran-2-yl)purine]",number of differentially regulated genes,[1],1306 genes
same,number of downregulated genes,[1],441 genes
same,number of upregulated genes,[1],865 genes
same,"significantly regulated genes, control group vs samples treated with 1 (in words)",vs DMSO mock,did not show any significantly regulated genes
same,logFC ABCG1,vs UV-treated group,−2.63
same,logFC AC002456.2,vs UV-treated group,1.58
same,logFC AC003986.6,vs UV-treated group,−1.65
same,logFC ADAMTS9-AS2,vs UV-treated group,−1.63
same,logFC ADGRG1,vs UV-treated group,1.52
same,logFC ANGPTL4,vs UV-treated group,1.73
same,logFC ANKRD33,vs UV-treated group,2.69
same,logFC APOL6,vs UV-treated group,−1.51
same,logFC ARHGAP22,vs UV-treated group,1.66
same,logFC B4GALNT1,vs UV-treated group,1.55
same,logFC BHLHE22,vs UV-treated group,−1.90
same,logFC BRINP2,vs UV-treated group,−1.77
same,logFC BTC,vs UV-treated group,−1.84
same,logFC CCDC107,vs UV-treated group,1.50
same,logFC CCL8,vs UV-treated group,−2.80
same,logFC CCL26,vs UV-treated group,1.75
same,logFC CD163,vs UV-treated group,1.67
same,logFC CFB,vs UV-treated group,−1.96
same,logFC CHRNA9,vs UV-treated group,2.21
same,logFC CITED4,vs UV-treated group,1.63
same,logFC CLNS1AP1,vs UV-treated group,−1.80
same,logFC CPNE7,vs UV-treated group,1.61
same,logFC CTD-2587H24.5,vs UV-treated group,1.54
same,logFC CXCL9,vs UV-treated group,−1.79
same,logFC CYP51A1,vs UV-treated group,1.65
same,logFC DHRS3,vs UV-treated group,−1.60
same,logFC DYSF,vs UV-treated group,1.73
same,logFC EBF2,vs UV-treated group,1.62
same,logFC FAM20A,vs UV-treated group,−1.86
same,logFC FAM81A,vs UV-treated group,1.71
same,logFC FGD3,vs UV-treated group,−1.93
same,logFC FOLR3,vs UV-treated group,1.68
same,logFC GBP2,vs UV-treated group,−1.61
same,logFC GPR37L1,vs UV-treated group,−1.66
same,logFC HAUS1P2,vs UV-treated group,−1.54
same,logFC HCK,vs UV-treated group,−1.66
same,logFC HS3ST2,vs UV-treated group,2.50
same,logFC IFIT2,vs UV-treated group,−1.77
same,logFC ITGA10,vs UV-treated group,1.77
same,logFC JAK3,vs UV-treated group,−1.68
same,logFC KCNN4,vs UV-treated group,1.85
same,logFC KCNT2,vs UV-treated group,−2.21
same,logFC KIF1A,vs UV-treated group,3.05
same,logFC LINC00702,vs UV-treated group,1.60
same,logFC LINC00704,vs UV-treated group,1.69
same,logFC LINC01204,vs UV-treated group,1.64
same,logFC MET,vs UV-treated group,1.63
same,logFC MOB3B,vs UV-treated group,−1.70
same,logFC MYEOV,vs UV-treated group,1.98
same,logFC NRROS,vs UV-treated group,1.74
same,logFC NUDT8,vs UV-treated group,1.56
same,logFC PPP2R2C,vs UV-treated group,1.95
same,logFC PSAT1P3,vs UV-treated group,−2.19
same,logFC RARRES3,vs UV-treated group,−2.09
same,logFC RNF150,vs UV-treated group,−1.80
same,logFC RORB,vs UV-treated group,−1.57
same,logFC RP1-181J22.1,vs UV-treated group,−2.53
same,logFC RP11-21C4.1,vs UV-treated group,−1.95
same,logFC RP11-54A9.1,vs UV-treated group,1.63
same,logFC RP11-184E9.1,vs UV-treated group,1.78
same,logFC RP11-363H12.1,vs UV-treated group,−1.58
same,logFC RP11-367F23.2,vs UV-treated group,1.70
same,logFC RP11-379B8.1,vs UV-treated group,−1.72
same,logFC RP11-383F6.1,vs UV-treated group,−1.50
same,logFC RP11-400K9.4,vs UV-treated group,−1.51
same,logFC RP11-541M12.6,vs UV-treated group,1.70
same,logFC RP11-1100L3.8,vs UV-treated group,−1.70
same,logFC RPL34P31,vs UV-treated group,−1.89
same,logFC SCG2,vs UV-treated group,2.00
same,logFC SERPINB9,vs UV-treated group,−1.59
same,logFC SLC20A1,vs UV-treated group,1.56
same,logFC STX1A,vs UV-treated group,1.55
same,logFC TGM2,vs UV-treated group,1.58
same,logFC TLR2,vs UV-treated group,−1.63
same,logFC TM4SF1,vs UV-treated group,2.08
same,logFC TMEM154,vs UV-treated group,1.57
same,logFC TMEM178A,vs UV-treated group,−1.52
same,logFC TMEM233,vs UV-treated group,2.12
same,logFC TNFRSF9,vs UV-treated group,−1.68
same,logFC TNFSF10,vs UV-treated group,−2.14
same,logFC TNFSF13B,vs UV-treated group,−1.61
same,logFC TP63,vs UV-treated group,−1.61
